Assays:
kochia (Kochia scoparia) [1] = assay: Test A preemergence, visual injury rating 0-100; type: in vivo
[2] = tested on: foxtail, giant (giant foxtail, Setaria faberii); assay: Test A preemergence, visual injury rating 0-100; type: in vivo
[3] = tested on: ragweed (common ragweed, Ambrosia elatior); assay: Test A preemergence, visual injury rating 0-100; type: in vivo
[4] = tested on: pigweed (Amaranthus retroflexus); assay: Test A preemergence, visual injury rating 0-100; type: in vivo
[5] = tested on: ryegrass, Italian (Italian ryegrass, Lolium multiflorum); assay: Test A preemergence, visual injury rating 0-100; type: in vivo
[6] = tested on: ducksalad (Heteranthera limosa); assay: Test B flooded paddy test, visual rating 0-100; conditions: Flood, 250 g ai/ha, applied to paddy water, rated after 13 to 15 days
[7] = tested on: barnyardgrass (Echinochloa crus-galli); assay: Test A preemergence, visual injury rating 0-100 (0 no effect, 100 complete control); type: in vivo
[8] = tested on: barnyardgrass (Echinochloa crus-galli); assay: Test B flooded paddy test, visual rating 0-100; conditions: Flood, 250 g ai/ha, applied to paddy water, rated after 13 to 15 days
kochia (Kochia scoparia) [9] = assay: Test A postemergence, visual injury rating 0-100; type: in vivo; conditions: 0 to 100 scale
[10] = tested on: foxtail, giant (giant foxtail, Setaria faberii); assay: Test A postemergence, visual injury rating 0-100; type: in vivo; conditions: 0 to 100 scale
[11] = tested on: ragweed (common ragweed, Ambrosia elatior); assay: Test A postemergence, visual injury rating 0-100; type: in vivo; conditions: 0 to 100 scale
[12] = tested on: wheat (Triticum aestivum); assay: Test A postemergence, visual injury rating 0-100; type: in vivo; conditions: 0 to 100 scale
[13] = tested on: galium (catchweed bedstraw, Galium aparine); assay: Test A postemergence, visual injury rating 0-100; type: in vivo; conditions: 0 to 100 scale
[14] = tested on: pigweed (Amaranthus retroflexus); assay: Test A postemergence, visual injury rating 0-100; type: in vivo; conditions: 0 to 100 scale
[15] = tested on: ryegrass, Italian (Italian ryegrass, Lolium multiflorum); assay: Test A postemergence, visual injury rating 0-100; type: in vivo; conditions: 0 to 100 scale
[16] = tested on: barnyardgrass (Echinochloa crus-galli); assay: Test A postemergence, visual injury rating 0-100; type: in vivo; conditions: 0 to 100 scale
[17] = tested on: blackgrass (Alopecurus myosuroides); assay: Test A postemergence, visual injury rating 0-100; type: in vivo; conditions: 0 to 100 scale
corn (Zea mays) = assay: Test A postemergence, visual injury rating 0-100; type: in vivo; conditions: 0 to 100 scale
rice (Oryza sativa) = assay: Test B flooded paddy test, visual rating 0-100 (0 no effect, 100 complete control); conditions: Flood, 250 g ai/ha, applied to paddy water, rated after 13 to 15 days

Structure (SMILES) | Kochia plant response rating (0 to 100 scale) (kochia (Kochia scoparia) [1]; 125 g ai/ha) | Kochia plant response rating (0 to 100 scale) (kochia (Kochia scoparia) [1]; 500 g ai/ha) | Foxtail, Giant plant response rating (0 to 100 scale) ([2]; 125 g ai/ha) | Foxtail, Giant plant response rating (0 to 100 scale) ([2]; 500 g ai/ha) | Ragweed plant response rating (0 to 100 scale) ([3]; 125 g ai/ha) | Ragweed plant response rating (0 to 100 scale) ([3]; 500 g ai/ha) | Pigweed plant response rating (0 to 100 scale) ([4]; 125 g ai/ha) | Pigweed plant response rating (0 to 100 scale) ([4]; 500 g ai/ha) | Ryegrass, Italian plant response rating (0 to 100 scale) ([5]; 125 g ai/ha) | Ryegrass, Italian plant response rating (0 to 100 scale) ([5]; 500 g ai/ha) | Ducksalad plant response rating (0 to 100 scale) [6] | Barnyardgrass plant response rating (0 to 100 scale) ([7]; 125 g ai/ha) | Barnyardgrass plant response rating (0 to 100 scale) ([7]; 500 g ai/ha) | Barnyardgrass plant response rating (0 to 100 scale) [8] | Kochia plant response rating (kochia (Kochia scoparia) [9]; 125 g ai/ha) | Kochia plant response rating (kochia (Kochia scoparia) [9]; 500 g ai/ha) | Foxtail, Giant plant response rating ([10]; 125 g ai/ha) | Foxtail, Giant plant response rating ([10]; 500 g ai/ha) | Ragweed plant response rating ([11]; 125 g ai/ha) | Ragweed plant response rating ([11]; 500 g ai/ha) | also measured
CC1=[N+]([O-])C(C(=O)Nc2cccc(F)c2F)C(c2ccccc2)C1 (centres unmarked) [Compound 97] | 50 | 60 | 90 | 90 | 40 | 90 | 0 | 60 | 20 | 90 | 100 | 90 | 100 | 70 | 0 | 50 | 60 | 90 | 0 | 20 | Wheat plant response rating ([12]; 125 g ai/ha): 10; Wheat plant response rating ([12]; 500 g ai/ha): 30; Galium plant response rating ([13]; 125 g ai/ha): 30; Galium plant response rating ([13]; 500 g ai/ha): 50; Pigweed plant response rating ([14]; 125 g ai/ha): 0; Pigweed plant response rating ([14]; 500 g ai/ha): 0; Ryegrass, Italian plant response rating ([15]; 125 g ai/ha): 0; Ryegrass, Italian plant response rating ([15]; 500 g ai/ha): 50; Barnyardgrass plant response rating ([16]; 125 g ai/ha): 70; Barnyardgrass plant response rating ([16]; 500 g ai/ha): 90; Blackgrass plant response rating ([17]; 125 g ai/ha): 30; Blackgrass plant response rating ([17]; 500 g ai/ha): 70; Corn plant response rating (corn (Zea mays); 125 g ai/ha): 0; Corn plant response rating (corn (Zea mays); 500 g ai/ha): 0; Rice plant response rating (0 to 100 scale) (rice (Oryza sativa)): 0
CC1=[N+]([O-])C(C(=O)Nc2cccc(F)c2F)C(c2cc(C(F)(F)F)ccc2C)C1 (centres unmarked) [Compound 98] | 10 | 80 | 90 | 100 | 20 | 80 | 0 | 70 | 90 | 100 | 100 | 90 | 90 | 55 | 0 | 0 | 80 | 90 | 30 | 30 | Wheat plant response rating ([12]; 125 g ai/ha): 60; Wheat plant response rating ([12]; 500 g ai/ha): 70; Galium plant response rating ([13]; 125 g ai/ha): 0; Galium plant response rating ([13]; 500 g ai/ha): 40; Pigweed plant response rating ([14]; 125 g ai/ha): 0; Pigweed plant response rating ([14]; 500 g ai/ha): 30; Ryegrass, Italian plant response rating ([15]; 125 g ai/ha): 40; Ryegrass, Italian plant response rating ([15]; 500 g ai/ha): 70; Barnyardgrass plant response rating ([16]; 125 g ai/ha): 70; Barnyardgrass plant response rating ([16]; 500 g ai/ha): 90; Blackgrass plant response rating ([17]; 125 g ai/ha): 70; Blackgrass plant response rating ([17]; 500 g ai/ha): 70; Corn plant response rating (corn (Zea mays); 125 g ai/ha): 60; Corn plant response rating (corn (Zea mays); 500 g ai/ha): 80; Rice plant response rating (0 to 100 scale) (rice (Oryza sativa)): 0
CC1=[N+]([O-])C(C(=O)Nc2cccc(F)c2F)C(c2cccc(Cl)c2F)C1 (centres unmarked) [Compound 99] | 10 | 70 | 90 | 90 | 10 | 80 | 0 | 60 | 50 | 70 | 85 | 90 | 90 | 60 | 0 | 50 | 60 | 90 | 0 | 30 | Wheat plant response rating ([12]; 125 g ai/ha): 0; Wheat plant response rating ([12]; 500 g ai/ha): 50; Galium plant response rating ([13]; 125 g ai/ha): 30; Galium plant response rating ([13]; 500 g ai/ha): 50; Pigweed plant response rating ([14]; 125 g ai/ha): 0; Pigweed plant response rating ([14]; 500 g ai/ha): 40; Ryegrass, Italian plant response rating ([15]; 125 g ai/ha): 30; Ryegrass, Italian plant response rating ([15]; 500 g ai/ha): 70; Barnyardgrass plant response rating ([16]; 125 g ai/ha): 90; Barnyardgrass plant response rating ([16]; 500 g ai/ha): 90; Blackgrass plant response rating ([17]; 125 g ai/ha): 50; Blackgrass plant response rating ([17]; 500 g ai/ha): 70; Corn plant response rating (corn (Zea mays); 125 g ai/ha): 0; Corn plant response rating (corn (Zea mays); 500 g ai/ha): 40; Rice plant response rating (0 to 100 scale) (rice (Oryza sativa)): 0
COc1cc(C2CC(C)=[N+]([O-])C2C(=O)Nc2cccc(F)c2F)ccc1C(F)(F)F (centres unmarked) [Compound 100] | 40 | 80 | 90 | 90 | 0 | 80 | 0 | 60 | 0 | 90 | 0 | 90 | 90 | 0 | 20 | 70 | 60 | 90 | 20 | 70 | Wheat plant response rating ([12]; 125 g ai/ha): 20; Wheat plant response rating ([12]; 500 g ai/ha): 50; Galium plant response rating ([13]; 125 g ai/ha): 70; Galium plant response rating ([13]; 500 g ai/ha): 80; Pigweed plant response rating ([14]; 125 g ai/ha): 0; Pigweed plant response rating ([14]; 500 g ai/ha): 40; Ryegrass, Italian plant response rating ([15]; 125 g ai/ha): 0; Ryegrass, Italian plant response rating ([15]; 500 g ai/ha): 70; Barnyardgrass plant response rating ([16]; 125 g ai/ha): 70; Barnyardgrass plant response rating ([16]; 500 g ai/ha): 90; Blackgrass plant response rating ([17]; 125 g ai/ha): 30; Blackgrass plant response rating ([17]; 500 g ai/ha): 70; Corn plant response rating (corn (Zea mays); 125 g ai/ha): 30; Corn plant response rating (corn (Zea mays); 500 g ai/ha): 70; Rice plant response rating (0 to 100 scale) (rice (Oryza sativa)): 0

— patent US11498899B2, “Nitrone herbicides” (FMC Corporation, priority 2016, dated 2022)
